Assays:
[1] = Inhibition of TPR-fused MET-mediated mouse BA/F3 cell proliferation after 48 hrs by cell titre blue based spectrophotometry
[2] = Inhibition of Met-mediated tumorigenesis in HGF-stimulated human HepG2 cells assessed as impairment in anchorage-independent growth by soft agar growth assay
[3] = Inhibition of Met-mediated tumorigenesis in HGF-stimulated human GTL16 cells assessed as impairment in anchorage-independent growth by soft agar growth assay
[4] = Inhibition of Met-mediated scattering in HGF-stimulated […] cells pre-incubated overnight prior to HGF stimulation for 24 hrs measured after 24 to 48 hrs

SMILES | IC50 [1] | IC50 [2] | IC50 [3] | IC50 [4]
O=C(Cc1cc(C(F)(F)F)cc(C(F)(F)F)c1)N[C@@H](Cc1ccccc1)C(=O)Nc1ccc(-c2cn3c(n2)sc2ccccc23)cc1 | 4000 nM | 321 nM | 811 nM | 171 nM
O=C(Cc1cc(C(F)(F)F)cc(C(F)(F)F)c1)N[C@H](Cc1ccccc1)C(=O)Nc1ccc(-c2cn3c(n2)sc2ccccc23)cc1 | – | 620 nM | 1190 nM | 206 nM
Cc1[nH]c(/C=C2\C(=O)Nc3ccc(S(=O)(=O)N(C)c4cccc(Cl)c4)cc32)c(C)c1C(=O)N1CCN(C)CC1 [(3Z)-N-(3-CHLOROPHENYL)-3-({3,5-DIMETHYL-4-[(4-METHYLPIPERAZIN-1-YL)CARBONYL]-1H-PYRROL-2-YL}METHYLENE)-N-METHYL-2-OXOINDOLINE-5-SULFONAMIDE] | – | 1560 nM | 228 nM | 152 nM

Source: BindingDB's records for doi:10.1016/j.ejmech.2011.10.051 (University of The Mediterranean, 2012)
